US20040023884A1, “Biologically active peptides from functional domains of bactericidal/permeability-increasing protein and uses thereof” (priority 1993, published 2004)
“Also recorded” adds a separate entry of the source. Ends that are not written are not given here.

How the values were obtained:
[1] = test system: rough mutant E. coli J5 bacteria; assay: Radial diffusion bactericidal assay, E. coli J5; type: cell-based; details: for bactericidal activity (in words) / pmol added to well to achieve a 30 mm^2 bactericidal zone, E. coli J5: radial diffusion; for bactericidal activity (in words): E. coli J5; for pmol added to well to achieve a 30 mm^2 bactericidal zone, E. coli J5: PROBIT analysis, E. coli J5 (rough)
Method in brief: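 Wells received 5 or 10 μL of BPI fragment, pre-incubated 3 h at 37 °C. The underlayer agarose carried washed log-phase organisms at 4×10^6 CFU/mL.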

[2] = 3H-heparin binding assay (affinity and capacity); details: for Heparin Capacity: heparin bound at saturation; for Kd: read-out: Heparin Affinity
Method in brief: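 Peptide fragments were bound to PVDF-membrane wells and incubated with 3H-heparin in blocking buffer for 1 h at 4 °C. After washing, bound radioactivity was quantified by liquid scintillation counting, with BSA background subtracted; rBPI23 served as positive control.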

[3] = test system: E. coli 0111:B4 (smooth) bacteria; assay: Radial diffusion bactericidal assay, E. coli 0111:B4; type: cell-based; details: radial diffusion; for pmol added to well to achieve a 30 mm^2 bactericidal zone, E. coli O111:B4: PROBIT analysis, E. coli O111:B4 (smooth); for bactericidal activity (in words): E. coli 0111:B4
Staphylococcus aureus = assay: Radial diffusion bactericidal assay, Staphylococcus aureus; type: cell-based; details: for pmol added to well to achieve a 30 mm^2 bactericidal zone, S. aureus: radial diffusion, PROBIT analysis; for bactericidal activity (in words): FIG. 10e
[4] = Lipid A binding competition with [125I]-rLBP; details: for IC50: read-out: IC50 (inhibition of Lipid A binding of radiolabeled rLBP)
Description: A second binding assay was developed, wherein radiolabeled recombinant LPS binding protein ([^125I]-rLBP) was used instead of radiolabeled rBPI23 in competition experiments with BPI functional domain peptides BPI.2, BPI.3, BPI.4, BPI.5, BPI.7, BPI.13, BPI.14, BPI.29, BPI.30 and BPI.48, rBPI, rBPI21Δcys, and rLBP25 were included in these assays as controls. In these experiments, Lipid A was adsorbed to the wells at a concentration of 0.7 μg/mL in methanol. Incubation of radiolabeled rLBP (a total of 650,000 cpm and a specific activity of 3.45 μCi/μg) was performed for 2.5 hr at 37° C. in the presence of BPI peptides in a series of increasing concentrations. IC50 values (i.e., the concentration at which Lipid A binding of radiolabeled rLBP25 is inhibited to one half the value achieved in the absence of the peptide) are shown in accompanying Table XI.

RAW 264.7 cells = assay: LPS neutralization cellular proliferation assay, RAW 264.7 cells; type: cell-based, mouse
Method in brief: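 Mouse RAW 264.7 cells were primed 24 h with 50U/mL mouse γ-interferon, then exposed about 15 h to E. coli O113 LPS in serum-free RPMI with or without BPI peptides at 25 ng/mL–50 μg/mL. Proliferation was quantified by [^3H]-thymidine uptake, 1 μCi/well, added at 5 h.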

Substance	bactericidal activity (in words) [1]	pmol added to well to achieve a 30 mm^2 bactericidal zone, E. coli J5 [1]	heparin binding capacity (in words) [2]	Heparin Capacity [2]	Kd [2]	pmol added to well to achieve a 30 mm^2 bactericidal zone, E. coli O111:B4 [3]	pmol added to well to achieve a 30 mm^2 bactericidal zone, S. aureus (Staphylococcus aureus)	IC50 (inhibition of Lipid A binding of radiolabeled rLBP) [4]	IC50 [4]	EC50 (peptide concentration at which the growth inhibitory effect of LPS was reversed by 50%) (RAW 264.7 cells)	IC50 (peptide concentration at which RAW cell growth was inhibited by 50%) (RAW 264.7 cells)	concentration above which appreciable bactericidal activity was shown [1]	bactericidal activity (in words) (Staphylococcus aureus)	bactericidal activity (in words) [3]	heparin binding activity (in words) [2]
KWKAAARFLKKWKAAARFLK [BPI.48]	highly bactericidal	42.40 pmol	extremely high heparin capacity	442.3 ng	1420 nM	253.54 pmol	4,089.14 pmol	0.48 µg/mL	200 nM	1.3 ± 0.9 µg/mL	5.0 ± 0.1 µg/mL	–	–	–	–
KSKVGWLIQLFHKK-NH2 (C-terminus assumed) [BPI.13]	–	440.80 pmol	–	369.1 ng	984 nM	5,857.40 pmol	5,341.27 pmol	1.7 µg/mL	1000 nM	1.9 ± 0.4 µg/mL	–	greater than 30 μg/mL	low levels of activity	–	–
KWKAQKRFLKKWKAQKRFLK-NH2 (C-terminus assumed) [BPI.7]	exhibited bactericidal activity; also recorded: high levels of bactericidal activity; also recorded: highly bactericidal	175.40 pmol	extremely high heparin binding capacity	405.6 ng	908 nM	2,072.10 pmol	3,769.60 pmol	0.26 µg/mL	100 nM	>50 µg/mL	–	–	low levels of activity	exhibited bactericidal activity	–
NVGLKFSISNANIKISGKWKAQKRFLK [BPI.3]	exhibited bactericidal activity	695.78 pmol	–	264.5 ng	781 nM	b (no detectable activity up to 5 μg/well)	–	0.75 µg/mL	250 nM	–	–	–	–	exhibited bactericidal activity	moderate heparin binding activity
KWKAQKRFLKKSKVGWLIQLFHKK-NH2 (C-terminus assumed) [BPI.30]	highest bactericidal activity; also recorded: highly bactericidal	76.38 pmol	extremely high heparin capacity	499.4 ng	592 nM	608.20 pmol	1,216.37 pmol	0.75 µg/mL	250 nM	1.2 ± 1.1 µg/mL	10.5 ± 1.2 µg/mL	–	highest amount of bactericidal activity	–	–
KSKVGWLIQLFHKKKSKVGWLIQLFHKK-NH2 (C-terminus assumed) [BPI.29]	greater bactericidal activity; also recorded: highly bactericidal	441.60 pmol	extremely high heparin capacity	463.7 ng	427 nM	–	15,508.98 pmol	0.44 µg/mL	130 nM	0.1 ± 0.02 µg/mL	13.6 ± 0.4 µg/mL	–	moderate levels of activity	–	–
IKISGKWKAQKRFLK [BPI.2]	–	3,001.50 pmol	low heparin binding capacity	203.6 ng	346 nM	b (no detectable activity up to 5 μg/well)	b (no detectable activity up to 5 μg/well)	2.36 µg/mL	1300 nM	–	— (No proliferation decrease up to 50 μg/ml)	–	–	exhibited bactericidal activity	little or no heparin binding activity
